Where a name gives a salt, the structure may show the parent alone. Read-outs that look alike come from different tables or passages of the source.
System: iCell cardiomyocytes (human iPSC-derived cardiomyocytes)
Assay: High-content imaging of cytotoxicity and mitochondrial integrity in iPSC-CMs
Format: cell-based
Conditions: Homo sapiens; for viability at 0.01 µM / activity at 0.01 µM / viability at 0.1 µM / activity at 0.1 µM / viability at 1 µM / activity at 1 µM / viability at 10 µM / activity at 10 µM / viability at 100 µM / activity at 100 µM: Cardiomyocyte, 0.00 µM = 100.00; for viability at 0.1 µM / activity at 0.1 µM: 0.10 µM; for minimal effective concentration: iPSC-CM
Method: Details on cardiomyocyte cell culture are described in detail elsewhere ([Grimm et al. 2015b]; [Sirenko et al. 2013a]). Briefly, tissue-culture treated 384 well plates were gelatinized with 25μL per well of 0.1% (w/v) gelatin in water for 2 h at 37°C and 5% CO2 . Individual vials of cells were thawed for 4 min in a water bath maintained at 37°C. Thawed cells were resuspended in 10ml plating medium containing 1:500 (vol/vol) penicillin/streptomycin solution at room temperature (RT). Live cell counts for each cell suspension were determined by trypan blue staining and cells were further diluted to provide final cell densities of 2×10^5 viable cells/ml. Thus, 5,000 cells suspended in 25μL media were transferred per well after the gelatin solution had been discarded. Cell culture plates were rested for 30 min at RT before they were incubated for 48 h at 37°C and 5% CO2 . Then, a media exchange with 30μL of fresh maintenance medium containing 1:500 (vol/vol) penicillin/streptomycin solution was performed, and cell media were subsequently changed every 48 h for 12 d. On the experiment day, the medium was completely exchanged with either 25μL (for Ca^2+ flux assay) or 40μL (for imaging) of fresh medium.
Cytotoxicity and effects on mitochondrial integrity of various PCBs and PCB metabolites in induced pluripotent stem cell-CMs (iPSC-CMs) were assessed using high-content cellular imaging in ImageXpress® Micro Confocal (Molecular Devices) as detailed in ([Grimm et al. 2015b]). Cells in 40μL maintenance media were treated with 10μL of 5× chemical solutions to provide test chemicals at final assay concentrations ranging from 0.01 to 100μM . […] Next, sample wells were treated with 50μL equilibrated 2× concentrated staining solution (maintenance medium containing Hoechst 33342, 4μg/mL and MitoTracker™ Orange, 0.4μM ). Microplates were then incubated for 15 min at 37°C and 5% CO2 before cells were washed twice with 30μL maintenance medium. All media were aspirated and discarded, and cells were fixed with […] of a 3.7% formaldehyde solution for 15 min at 37°C and 5% […] . Fixed cells were washed 3× with 25μL PBS before image acquisition using the DAPI (Hoechst 33342) and Cy3 (MitoTracker™ Orange) filters at 10× magnification on the ImageXpress® Micro Confocal high-content confocal microscope (Molecular Devices). The multiwavelength cell scoring applications module in MetaXpress® was used to analyze acquired images.
Phenotypic responses were quantitatively assessed using concentration–response modeling as detailed elsewhere ([Sirenko et al. 2017]). Briefly, phenotypic readouts were normalized to vehicle controls and fit to a four-parameter logistic model in R studio software (version 3.1.1; R Development Core Team). Following EPA guidance on dose–response modeling, a cutoff of one standard deviation across means of vehicle control (i.e., 0.5% vol/vol DMSO in cell culture media) wells was applied to determine the point-of-departure (POD) values ([U.S. EPA 2012]). In the absence of a concentration–response, the highest tested concentration (i.e., 100μM ) was assigned as “no observable adverse effect level.” The concentration–response assessment R script, as well as templates for vehicle and concentration–response data, are available as a supplement to Sirenko et al. ([2017]). The ability of physicochemical properties to predict differences in PODs were evaluated by multiregression and mixed-effects modeling using R.

O=S(=O)(O)Oc1cc(Cl)ccc1-c1ccccc1 [2-yl PCB 3 sulfate]
viability at 0.01 µM (1.5 h, read-out: cm.cam.90min): 88.1%
activity at 0.01 µM (1.5 h, read-out: cm.mii.90min): 116%
activity at 0.01 µM (1.5 h, read-out: cm.mito.90min): 87.6%
viability at 0.01 µM (1.5 h, read-out: cm.tc.90min): 88.3%
viability at 0.1 µM (1.5 h, read-out: cm.cam.90min): 98.3%
activity at 0.1 µM (1.5 h, read-out: cm.mii.90min): 105%
activity at 0.1 µM (1.5 h, read-out: cm.mito.90min): 98.4%
viability at 0.1 µM (1.5 h, read-out: cm.tc.90min): 98.4%
viability at 1 µM (1.5 h, read-out: cm.cam.90min): 105%
activity at 1 µM (1.5 h, read-out: cm.mii.90min): 88.6%
activity at 1 µM (1.5 h, read-out: cm.mito.90min): 105%
viability at 1 µM (1.5 h, read-out: cm.tc.90min): 105%
viability at 10 µM (1.5 h, read-out: cm.cam.90min): 100%
activity at 10 µM (1.5 h, read-out: cm.mii.90min): 96.5%
activity at 10 µM (1.5 h, read-out: cm.mito.90min): 101%
viability at 10 µM (1.5 h, read-out: cm.tc.90min): 101%
viability at 100 µM (1.5 h, read-out: cm.cam.90min): 104%
activity at 100 µM (1.5 h, read-out: cm.mii.90min): 81%
activity at 100 µM (1.5 h, read-out: cm.mito.90min): 105%
viability at 100 µM (1.5 h, read-out: cm.tc.90min): 105%
viability at 0.01 µM (24 h, read-out: cm.cam.24hrs): 99.2%
activity at 0.01 µM (24 h, read-out: cm.mii.24hrs): 94.5%
activity at 0.01 µM (24 h, read-out: cm.mito.24hrs): 100%
viability at 0.01 µM (24 h, read-out: cm.tc.24hrs): 101%
viability at 0.1 µM (24 h, read-out: cm.cam.24hrs): 101%
activity at 0.1 µM (24 h, read-out: cm.mii.24hrs): 102%
activity at 0.1 µM (24 h, read-out: cm.mito.24hrs): 101%
viability at 0.1 µM (24 h, read-out: cm.tc.24hrs): 101%
viability at 1 µM (24 h, read-out: cm.cam.24hrs): 101%
activity at 1 µM (24 h, read-out: cm.mii.24hrs): 102%
activity at 1 µM (24 h, read-out: cm.mito.24hrs): 103%
viability at 1 µM (24 h, read-out: cm.tc.24hrs): 101%
viability at 10 µM (24 h, read-out: cm.cam.24hrs): 102%
activity at 10 µM (24 h, read-out: cm.mii.24hrs): 85.7%
activity at 10 µM (24 h, read-out: cm.mito.24hrs): 102%
viability at 10 µM (24 h, read-out: cm.tc.24hrs): 102%
viability at 100 µM (24 h, read-out: cm.cam.24hrs): 98.3%
activity at 100 µM (24 h, read-out: cm.mii.24hrs): 91.6%
activity at 100 µM (24 h, read-out: cm.mito.24hrs): 99.6%
viability at 100 µM (24 h, read-out: cm.tc.24hrs): 98.5%
minimal effective concentration (1.5 h, read-out: cm.cam.90min POD): 100 µM
minimal effective concentration (1.5 h, read-out: cm.mii.90min POD): 7.39 µM
minimal effective concentration (1.5 h, read-out: cm.mito.90min POD): 100 µM
minimal effective concentration (1.5 h, read-out: cm.tc.90min POD): 100 µM
minimal effective concentration (24 h, read-out: cm.cam.24hrs POD): 100 µM
minimal effective concentration (24 h, read-out: cm.mii.24hrs POD): 100 µM
minimal effective concentration (24 h, read-out: cm.mito.24hrs POD): 100 µM
minimal effective concentration (24 h, read-out: cm.tc.24hrs POD): 100 µM
